Data published in US7153822B2, “Compositions and methods for modulating connexin hemichannels” (Wyeth, priority 2002, dated 2006).
Square brackets hold non-standard residues; d marks the D form. Peptide text beside a SMILES is read from it. dHyp = O=C(O)[C@H]1C[C@H](O)CN1

Legend:
[1] = rat, in vivo, sc
Description: Compound 1 was delivered by an osmotic minipump (Alzet model 2ML4) that was inserted into the intraperitoneal (i.p.) cavity immediately prior to induction of the myocardial infarction. The pump was filled with vehicle (isotonic saline) or Compound 1 and primed at 37° C. for 24 hours prior to the operation. In order to ensure that the therapeutic plasma concentration was obtained already at the time of infarction, a loading dose of Compound 1 was given s.c. prior to ligation of the LAD.
After administration of the s.c. loading dose of Compound 1 and after i.p. insertion of the osmotic minipump, a left thoracotomy was performed, and the left anterior decending artery was ligated using a 6-0 silk suture. The thorax is closed in layers, and a negative pressure was induced in the pleural cavity to unfold the lungs. Sham-operated animals were subjected to the same procedure without ligation of the LAD. Postoperatively, the animal were allowed to recover in a heated cabinet at 30° C. with 50% oxygen until the next morning. To prevent dehydration during the recovery period, the rat was given 5 ml 5% glucose s.c. immediately after completion of surgery and another 5 ml 5% glucose at 4 p.m. To relieve postoperative pain, the rat was treated with buprenorphine (20 μg/100 g s.c. b.i.d.) and meloxicam (0.1 mg/100 g s.c. once daily) for three days after the myocardial infarction. […] Plasma concentrations of Compound 1 were measured by mass spectrometry following solid phase extraction.

infarcted mice = experiment: bone marrow cell transplantation after myocardial infarction (design of Orlic et al); type: in vivo; settings: repeated administration during the proliferation process
Description: Myocardial infarction leads to loss of tissue and impairment of cardiac performance. The remaining myocytes are unable to reconstitute the necrotic tissue, and the post-infarcted heart deteriorates with time. Injury to a target organ is sensed by distant stem cells, which migrate to the site of damage and undergo alternate stem cell differentiation; these events promote structural and functional repair. This high degree of stem cell plasticity prompted Orlic et al (Nature 410, 701–705 (2001)) to test whether dead myocardium could be restored by transplanting bone marrow cells in infarcted mice. They sorted lineage-negative (Lin−) bone marrow cells from transgenic mice expressing enhanced green fluorescent protein by fluorescence-activated cell sorting on the basis of c-kit expression. Shortly after coronary ligation, Lin− c-kitPOS cells were injected in the contracting wall bordering the infarct. […] The developing tissue comprised proliferating myocytes and vascular structures. Their studies indicate that locally delivered bone marrow cells can generate de novo myocardium, ameliorating the outcome of coronary artery disease. […]

## CC(=O)N[C@H](Cc1ccc(O)cc1)C(=O)N1CCC[C@@H]1C(=O)N1C[C@@H](O)C[C@@H]1C(=O)NCC(=O)N[C@H](C)C(=O)NCC(N)=O [Compound 1, Ac-D-Tyr-D-Pro-D-4Hyp-Gly-D-Ala-Gly-NH2] (Ac-[dY][dP][dHyp]G[dA]G-NH2)
[1]
  time to steady-state plasma level: 3 min
Infarcted mice
  connexin 43 expression: increase in connexin 43 expression
